Assay results reported in patent US10526287B2, “LSD1 inhibitors and uses thereof” (Constellation Pharmaceuticals, Inc., priority 2015, dated 2020).
Structures can show the parent of a compound that is named as a salt. Where two headings read alike, the source gives them in different places.

Target: LSD1 (Homo sapiens, UniProt O60341)
Test: Biochemical assay for LSD1 activity (LSD1 demethylase TR-FRET)
Details: biotinylated H3K4me1 peptide, 50 minutes at room temperature, TR-FRET, read-out: LSD1_Pep_TR-FRET_1.0 (IC50 T50)

IC50 (Table 5) | IC50 (Table 6) | SMILES
– | < 100 nM | CC/C(=C\c1ccccc1)[C@@H]1C[C@H]1N[C@H]1CC[C@@H](NCc2ccc(C(=O)O)cc2)CC1 (racemic) [Compound 176, 4-((((trans)-4-(((trans)-2-((E)-1-phenylbut-1-en-2-yl)cyclopropyl)amino)cyclohexyl)amino)methyl)benzoic Acid Dihydrochloride]
– | < 100 nM | CC(C)/C(=C\c1ccccc1)[C@H]1C[C@@H]1N[C@H]1CC[C@H](N)CC1 (racemic) [Compound 178, (trans)-N^1-((trans)-2-(E)-3-methyl-1-phenylbut-1-en-2-yl)cyclopropyl)cyclohexane-1,4-diamine Dihydrochloride]
– | < 100 nM | CC(C)/C(=C\c1ccccc1)[C@@H]1C[C@H]1NC1CCN(Cc2ccc(C(=O)O)cc2)CC1 (racemic) [Compound 179, 4-((4-(((trans)-2-((E)-3-methyl-1-phenylbut-1-en-2-yl)cyclopropyl)amino)piperidin-1-yl)methyl)benzoic Acid bis(trifluoroacetic Acid) Salt]
– | < 100 nM | CC/C(=C\c1ccccc1)[C@@H]1C[C@H]1N[C@H]1CC[C@H](NCC(=O)O)CC1 (racemic) [Compound 182, 2-(((trans)-4-(((trans)-2-((E)-1-phenylbut-1-en-2-yl)cyclopropyl)amino)cyclohexyl)amino)acetic acid]
– | < 100 nM | CC/C(=C\c1ccccc1)[C@@H]1C[C@H]1N[C@H]1CC[C@@H](NCC(=O)O)CC1 (racemic) [Compound 183, 2-(((cis)-4-(((trans)-2-((E)-1-phenylbut-1-en-2-yl)cyclopropyl)amino)cyclohexyl)amino)acetic Acid]
– | < 100 nM | COCC/C(=C\c1ccccc1)[C@@H]1C[C@H]1N[C@H]1CC[C@H](NCC(C)(C)C(=O)O)CC1 (racemic) [Compound 184, 3-(((trans)-4-(((trans)-2-((E)-4-methoxy-1-phenylbut-1-en-2-yl)cyclopropyl)amino)cyclohexyl)amino)-2,2-dimethylpropanoic Acid bis(trifluoroacetic Acid) Salt]
– | < 100 nM | COCC/C(=C\c1ccccc1)[C@@H]1C[C@H]1NC1CCC(NCc2ccc(C(=O)O)nc2)CC1 (mixture of isomers) [Compound 185, 5-((((trans)-4-(((trans)-2-((E)-4-methoxy-1-phenylbut-1-en-2-yl)cyclopropyl)amino)cyclohexyl)amino)methyl)picolinic Acid bis(trifluoroacetic Acid) Salt]
– | < 100 nM | C/C(=C\c1ccccc1)[C@@H]1C[C@H]1NC1CCN(CC(=O)O)CC1 (racemic) [Compound 194, 2-(4-(((trans)-2-((E)-1-phenylprop-1-en-2-yl)cyclopropyl)amino)piperidin-1-yl)acetic Acid Dihydrochloride]
– | < 100 nM | C/C(=C\c1ccccc1)[C@@H]1C[C@H]1NC1CCN(CC(N)=O)CC1 (racemic) [Compound 196, 2-(4-(((trans)-2-((E)-1-phenylprop-1-en-2-yl)cyclopropyl)amino)piperidin-1-yl)acetamide Dihydrochloride]
– | < 100 nM | C/C(=C\c1ccccc1)[C@@H]1C[C@H]1NC1CCN(CCC(=O)N(C)C)CC1 (racemic) [Compound 198, N,N-dimethyl-3-(4-(((trans)-2-((E)-1-phenylprop-1-en-2-yl)cyclopropyl)amino)piperidin-1-yl)propanamide Dihydrochloride]
– | < 100 nM | C/C(=C\c1ccccc1)[C@@H]1C[C@H]1NC1CCN(CCC(=O)O)CC1 (racemic) [Compound 199, 3-(4-(((trans)-2-((E)-1-phenylprop-1-en-2-yl)cyclopropyl)amino)piperidin-1-yl)propanoic Acid Dihydrochloride]
– | < 100 nM | C/C(=C\c1ccccc1)[C@@H]1C[C@H]1NC1CCN(Cc2ccc(C(=O)O)nc2)CC1 (racemic) [Compound 200, 5-((4-(((trans)-2-((E)-1-phenylprop-1-en-2-yl)cyclopropyl)amino)piperidin-1-yl)methyl)picolinic Acid Dihydrochloride]
– | < 100 nM | C/C(=C\c1ccccc1)[C@@H]1C[C@H]1NC1CCN(CCO)CC1 (racemic) [Compound 201, 2-(4-(((trans)-2-((E)-1-phenylprop-1-en-2-yl)cyclopropyl)amino)piperidin-1-yl)ethan-1-ol Dihydrochloride]
– | < 100 nM | C/C(=C\c1ccccc1)[C@@H]1C[C@H]1NC1CCN(Cc2ccc(C(=O)O)cn2)CC1 (racemic) [Compound 203, 6-((4-(((trans)-2-((E)-1-phenylprop-1-en-2-yl)cyclopropyl)amino)piperidin-1-yl)methyl)nicotinic Acid Dihydrochloride]
– | > 10000 nM | C/C(=C\c1ccccc1)[C@@H]1C[C@H]1NC1CCN(CCOCC(=O)O)CC1 (racemic) [Compound 204, 2-(2-(4-(((trans)-2-((E)-1-phenylprop-1-en-2-yl)cyclopropyl)amino)piperidin-1-yl)ethoxy)acetic Acid Dihydrochloride]
– | < 100 nM | C/C(=C\c1ccccc1)[C@@H]1C[C@H]1NC1CCN(CCNS(C)(=O)=O)CC1 (racemic) [Compound 205, N-(2-(4-(((trans)-2-(E)-1-phenylprop-1-en-2-yl)cyclopropyl)amino)piperidin-1-yl)ethyl)methanesulfonamide Dihydrochloride]
– | 100 to 1000 nM | C/C(=C\c1ccccc1)[C@@H]1C[C@H]1NC1CCN(CCc2ccc(C(=O)O)cc2)CC1 (racemic) [Compound 206, 4-(2-(4-(((trans)-2-((E)-1-phenylprop-1-en-2-yl)cyclopropyl)amino)piperidin-1-yl)ethyl)benzoic Acid Dihydrochloride]
– | 100 to 1000 nM | CC/C(=C\c1ccccc1)[C@@H]1C[C@H]1NC1CCC(NCc2cnn(CC(=O)O)c2)CC1 (mixture of isomers) [Compound 210, 2-(4-(((4-(((trans)-2-((E)-1-phenylbut-1-en-2-yl)cyclopropyl)amino)cyclohexyl)amino)methyl)-1H-pyrazol-1-yl)acetic Acid Dihydrochloride]

Further lines, the compound ahead of its results:

SMILES | IC50 (Table 5) | IC50 (Table 6)
F/C(=C\c1ccccc1)C1CC1NCC1CCNCC1 (racemic) [Compound 108, Racemic 2-((Z)-1-fluoro-2-phenylvinyl)-N-(piperidin-4-ylmethyl)cyclopropanamine Dihydrochloride] | 100 to 1000 nM | –
CC/C(=C\c1ccccc1)[C@@H]1C[C@H]1NCC1CCN(Cc2ccc(C(=O)OC(C)(C)C)cc2)CC1 (racemic) [Compound 127] | – | 100 to 1000 nM
CC/C(=C\c1ccccc1)[C@@H]1C[C@H]1NC1CCN(Cc2ccc(C(=O)O)cc2)CC1 (racemic) [Compound 128, 4-((4-(((trans)-2-((E)-1-phenylbut-1-en-2-yl)cyclopropyl)amino)piperidin-1-yl)methyl)benzoic acid bis-trifluoroacetic acid salt] | – | < 100 nM
C/C(=C\c1ccccc1)[C@@H]1C[C@H]1NC1CCN(Cc2ccc[nH]c2=O)CC1 (racemic) [Compound 134, 3-((4-(((trans)-2-((E)-1-phenylprop-1-en-2-yl)cyclopropyl)amino)piperidin-1-yl)methyl)pyridin-2(1H)-one bis(2,2,2-trifluoroacetate)] | – | < 100 nM
C/C(=C\c1ccccc1)[C@@H]1C[C@H]1NCC1CCN(CCC#N)CC1 (racemic) [Compound 135, 3-(4-((((trans)-2-((E)-1-phenylprop-1-en-2-yl)cyclopropyl)amino)methyl)piperidin-1-yl)propanenitrile dihydrochloride] | – | < 100 nM
CNC(=O)c1ccc(CN2CCC(N[C@@H]3C[C@H]3/C(C)=C/c3ccccc3)CC2)cc1 (racemic) [Compound 136, N-methyl-4-((4-(((trans)-2-((E)-1-phenylprop-1-en-2-yl)cyclopropyl)amino)piperidin-1-yl)methyl)benzamide dihydrochloride] | – | < 100 nM
C/C(=C\c1ccccc1)[C@@H]1C[C@H]1NC1CCN(Cc2ccc(C(N)=O)cc2)CC1 (racemic) [Compound 137, 4-((4-(((trans)-2-((E)-1-phenylprop-1-en-2-yl)cyclopropyl)amino)piperidin-1-yl)methyl)benzamide dihydrochloride] | – | < 100 nM
CC/C(=C\c1ccccc1)[C@@H]1C[C@H]1NCC1CCN(Cc2ccc(C(=O)O)cc2)CC1 (racemic) [Compound 163, 4-((4-((((trans)-2-((E)-1-phenylbut-1-en-2-yl)cyclopropyl)amino)methyl)piperidin-1-yl)methyl)benzoic acid bis trifluoroacetic acid salt] | – | < 100 nM
C/C(=C\c1ccccc1)[C@@H]1C[C@H]1N[C@H]1CC[C@H](NCCCC(=O)O)CC1 (racemic) [Compound 164, 4-(((trans)-4-(((trans)-2-((E)-1-phenylprop-1-en-2-yl)cyclopropyl)amino)cyclohexyl)amino)butanoic Acid bis(trifluoroacetic Acid) Salt] | – | < 100 nM
C/C(=C\c1ccccc1)[C@@H]1C[C@H]1N[C@H]1CC[C@@H](NCCCC(=O)O)CC1 (racemic) [Compound 165, 4-(((cis)-4-(((trans)-2-((E)-1-phenylprop-1-en-2-yl)cyclopropyl)amino)cyclohexyl)amino)butanoic Acid bis(trifluoroacetic Acid) Salt] | – | < 100 nM
CC/C(=C\c1ccccc1)[C@@H]1C[C@H]1N[C@H]1CC[C@@H](N)CC1 (racemic) [Compound 168, (cis)-N^1-((trans)-2-((E)-1-phenylbut-1-en-2-yl)cyclopropyl)cyclohexane-1,4-diamine Dihydrochloride] | – | < 100 nM
CC/C(=C\c1ccccc1)[C@@H]1C[C@H]1N[C@H]1CC[C@H](N)CC1 (racemic) [Compound 169, (trans)-N^1-((trans)-2-((E)-1-phenylbut-1-en-2-yl)cyclopropyl)cyclohexane-1,4-diamine Dihydrochloride] | – | < 100 nM
C/C(=C\c1ccc(-c2cnn(C)c2)cc1)[C@@H]1C[C@H]1NC1CCNCC1 (racemic) [Compound 175] | – | < 100 nM
